This note sets out measurements from patent US10696675B2, “Imidazopyridopyrimidine derivative compound and use thereof” (HANMI PHARMACEUTICAL CO., LTD., priority 2016, dated 2020).

Where only a bound is given, the exact number is not on record here.

For one test, the target named is FGFR1 (Homo sapiens, UniProt P11362). The test can be described thus: Activity inhibition for FGFR1 kinase (Z′-LYTE biochemical assay, Invitrogen SelectScreen). The conditions noted are these: ATP concentration based on Km. As for the experimental part: (§1) For the synthesized compounds, inhibitory activity for FGFR1, 2, 3, 4 kinase was measured. Activity measurement was carried out by requesting to SelectScreen® Biochemical Kinase Profiling Service of Invitrogen. A Z′-LYTE® biochemical assay method was used, and the ATP concentration was set based on the Km value.

Another test concerns the target FGFR4 (Homo sapiens, UniProt P22455). The experiment in a line: Activity inhibition for FGFR4 kinase (Z′-LYTE biochemical assay, Invitrogen SelectScreen). The conditions noted are these: ATP concentration based on Km. The method, then: as §1
In the next test the test system is HUH7 cells. The experiment in a line: Proliferation inhibitory effect for HUH7 cells (SRB assay). The test is classed as cell-based. Particulars: Homo sapiens, Huh-7, 72 hours, GI50, read-out: IC50 HUH7 Cell Line. As for the experimental part: Test Example 2: Measuring Inhibitory Effect of FGFR Inhibitor Using Cell Line
The test was carried out for identifying a proliferation inhibitory effect of the compound of the present invention for HUH7 cells. HUH7 cell lines were counted and 5.0×10^3 cells were inoculated per well in a 96 well plate. After the innoculation, the cells were cultured for 24 hours in a 37 □ and 5% carbon dioxide (CO2) incubator. On the next day, the synthesized compounds were each diluted and prepared. The diluted compounds were introduced to the cell lines inoculated the previous day by concentrations, and reacted for 72 hours in a 37 □ and 5% carbon dioxide (CO2) incubator. However, to a positive control to which the compound was not added, 0.1% dimethyl sulfoxide (DMSO) diluted with a medium was introduced. To a negative control plate, a trichloroacetic acid (TCA) solution was introduced, and fixed at 4 □. After reacting for 72 hours, the medium including the compound was removed, a TCA solution was added thereto, and the cells were fixed for 30 minutes to 60 minutes at 4 □. The TCA solution was discarded, the plate was washed off with distilled water and then dried in the air. A 0.4% sulforhodamin B (SRB) solution was added to the plate and dyed for 10 minutes at room temperature. The plate was washed off with tap water including a 1% acetic acid solution, and then dried in the air. A 10 mM Trizma base solution was added to dissolve the solid SRB. Using a microplate reader, optical density (O.D. value) was measured at 540 nm. A GI50 value of each of the compounds was calculated using GraphPad Prism V6.0 Software.
A general note: Sulforhodamine B stains cellular protein and so reports cell mass.

Sequence of FGFR1 (P11362 22-822): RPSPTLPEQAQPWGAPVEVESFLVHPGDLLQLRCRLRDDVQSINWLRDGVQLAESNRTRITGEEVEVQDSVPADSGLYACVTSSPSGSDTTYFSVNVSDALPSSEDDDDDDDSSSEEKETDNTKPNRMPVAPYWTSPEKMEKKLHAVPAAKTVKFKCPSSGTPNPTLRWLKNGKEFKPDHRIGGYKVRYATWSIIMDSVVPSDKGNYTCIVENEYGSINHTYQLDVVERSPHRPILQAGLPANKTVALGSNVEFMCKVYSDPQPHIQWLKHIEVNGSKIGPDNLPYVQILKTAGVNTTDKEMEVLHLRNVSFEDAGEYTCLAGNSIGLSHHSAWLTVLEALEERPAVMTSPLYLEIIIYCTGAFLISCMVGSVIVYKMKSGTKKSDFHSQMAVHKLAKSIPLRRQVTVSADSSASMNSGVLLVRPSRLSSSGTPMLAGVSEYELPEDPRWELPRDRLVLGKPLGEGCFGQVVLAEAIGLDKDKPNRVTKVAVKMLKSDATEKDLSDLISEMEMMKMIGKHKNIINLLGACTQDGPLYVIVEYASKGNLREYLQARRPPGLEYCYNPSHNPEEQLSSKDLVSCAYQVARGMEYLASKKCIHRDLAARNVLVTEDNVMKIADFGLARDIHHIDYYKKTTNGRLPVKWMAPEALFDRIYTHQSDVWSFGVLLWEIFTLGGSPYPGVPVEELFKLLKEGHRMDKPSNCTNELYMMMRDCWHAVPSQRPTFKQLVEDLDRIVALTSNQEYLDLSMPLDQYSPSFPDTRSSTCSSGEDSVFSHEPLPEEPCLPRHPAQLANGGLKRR
Sequence of FGFR4 (P22455 22-802): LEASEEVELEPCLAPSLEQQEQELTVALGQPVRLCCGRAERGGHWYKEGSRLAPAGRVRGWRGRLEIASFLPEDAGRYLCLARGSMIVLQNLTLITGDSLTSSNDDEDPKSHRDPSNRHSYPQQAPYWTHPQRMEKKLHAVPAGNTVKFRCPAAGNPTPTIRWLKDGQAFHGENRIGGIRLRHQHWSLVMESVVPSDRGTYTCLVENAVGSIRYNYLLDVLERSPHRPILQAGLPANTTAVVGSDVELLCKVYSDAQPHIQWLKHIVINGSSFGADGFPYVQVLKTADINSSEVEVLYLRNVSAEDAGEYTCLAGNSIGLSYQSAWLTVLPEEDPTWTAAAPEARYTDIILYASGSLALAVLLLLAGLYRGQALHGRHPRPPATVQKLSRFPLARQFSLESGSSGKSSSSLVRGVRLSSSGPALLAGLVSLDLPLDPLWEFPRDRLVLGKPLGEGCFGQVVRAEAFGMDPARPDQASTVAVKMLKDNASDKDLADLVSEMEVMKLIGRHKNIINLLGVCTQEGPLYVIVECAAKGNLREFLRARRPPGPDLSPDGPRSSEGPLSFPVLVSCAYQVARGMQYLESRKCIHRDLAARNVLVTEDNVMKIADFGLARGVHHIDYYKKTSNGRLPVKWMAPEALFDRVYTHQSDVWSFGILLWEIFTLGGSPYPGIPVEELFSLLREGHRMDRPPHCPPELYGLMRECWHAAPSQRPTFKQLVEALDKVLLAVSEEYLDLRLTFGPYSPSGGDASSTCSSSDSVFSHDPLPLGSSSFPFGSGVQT

One may read the IC50 as the concentration that gives 50% inhibition. Consider `C=CC(=O)Nc1cc(N2C[C@@H](C)O[C@@H](C)C2)ccc1Nc1ncc2cc(-c3c(Cl)c(OC)cc(OC)c3Cl)c3nccn3c2n1` [compound 38], for which the IC50 at FGFR1, at FGFR4 and in the test on HUH7 cells was less than 50 nM in each case.
As for `C=CC(=O)Nc1cccc(F)c1Nc1ncc2cc(-c3c(F)c(OC)cc(OC)c3F)c3nccn3c2n1` [Synthesis Example 72, N-(2-((6-(2,6-difluoro-3,5-dimethoxyphenyl)imidazo[1′,2′:1,6]pyrido[2,3-d]pyrimidin-2-yl)amino)-3-fluorophenyl)acrylamide], the IC50 against FGFR1 is more than 500 nM; against FGFR4 it was less than 50 nM; in the test on HUH7 cells it was less than 50 nM.
Consider `C=CC(=O)Nc1cccc(C)c1Nc1ncc2cc(-c3c(Cl)c(OC)cc(OC)c3Cl)c3nccn3c2n1` [compound 9], for which the values for the IC50 on FGFR1, against FGFR4 and with HUH7 cells were more than 500 nM, less than 50 nM and 50 to 500 nM, respectively.
On the same counts, the results for `C=CC(=O)Nc1cc(C)cc(C)c1Nc1ncc2cc(-c3c(Cl)c(OC)cc(OC)c3Cl)c3nccn3c2n1` [compound 58] are more than 500 nM, 50 to 500 nM and 50 to 500 nM.
In the case of `C=CC(=O)Nc1cc(N2CCN(CC)CC2)ccc1Nc1ncc2cc(-c3c(Cl)c(OC)cc(OC)c3Cl)c3nccn3c2n1` [compound 31], the IC50 on FGFR4 and in the test on HUH7 cells was less than 50 nM in each case.
Take `C=CC(=O)Nc1cc(N2CCN(CC)CC2)ccc1Nc1cc2c(cn1)cc(-c1c(Cl)c(OC)cc(OC)c1Cl)c1nccn12` [compound 85]: the concentration for half-maximal inhibition (IC50) against FGFR1, against FGFR4 and in the test with HUH7 cells was less than 50 nM each time.
For the compound `C=CC(=O)Nc1cc(OC2CCCC2)ccc1Nc1ncc2cc(-c3c(Cl)c(OC)cc(OC)c3Cl)c3nccn3c2n1` [compound 54], the IC50 at FGFR1 was more than 500 nM; at FGFR4 it was 50 to 500 nM; in the test with HUH7 cells, 50 to 500 nM.
With `C=CC(=O)Nc1cc(N2CC(OC)C2)ccc1Nc1ncc2cc(-c3c(Cl)c(OC)cc(OC)c3Cl)c3nccn3c2n1` [compound 37], the IC50 on FGFR1, at FGFR4 and in the test with HUH7 cells was less than 50 nM each time.
Turning to `C=CC(=O)Nc1cc(S(C)(=O)=O)ccc1Nc1ncc2cc(-c3c(Cl)c(OC)cc(OC)c3Cl)c3nccn3c2n1` [compound 18], the IC50 at FGFR1 was less than 50 nM; against FGFR4, less than 50 nM; in the test on HUH7 cells, 50 to 500 nM.
Consider `C=CC(=O)Nc1cc(N(C)CCOC)ccc1Nc1ncc2cc(-c3c(Cl)c(OC)cc(OC)c3Cl)c3nccn3c2n1` [compound 25], for which the IC50 on FGFR1, against FGFR4 and with HUH7 cells was less than 50 nM throughout.
Consider `C=CC(=O)Nc1cc(N2CC[C@H](N(C)C)C2)ccc1Nc1ncc2cc(-c3c(Cl)c(OC)cc(OC)c3Cl)c3nccn3c2n1` [compound 48], for which the IC50 against FGFR1, against FGFR4 and in the test with HUH7 cells was less than 50 nM in each case.
As for `C=CC(=O)Nc1cc(O[C@@H]2CCOC2)ccc1Nc1ncc2cc(-c3c(Cl)c(OC)cc(OC)c3Cl)c3nccn3c2n1` [compound 53], the IC50 at FGFR4 and in the test on HUH7 cells was less than 50 nM each time.
`C=CC(=O)Nc1cc(N2CCOCC2)ccc1Nc1ncc2cc(-c3c(Cl)c(OC)cc(OC)c3Cl)c3nccn3c2n1` [compound 32]: the IC50 on FGFR4 and in the test with HUH7 cells was less than 50 nM throughout.
For `C=CC(=O)Nc1cc(OCCOC)ccc1Nc1ncc2cc(-c3c(Cl)c(OC)cc(OC)c3Cl)c3nccn3c2n1` [compound 29], the IC50 on FGFR1, on FGFR4 and in the test with HUH7 cells was less than 50 nM throughout.
Turning to `C=CC(=O)Nc1cc(N2CCOCC2)ccc1Nc1cc2c(cn1)cc(-c1c(Cl)c(OC)cc(OC)c1Cl)c1nccn12` [Synthesis Example 83, N-(2-((4-(2,6-dichloro-3,5-dimethoxyphenyl)imidazo[1,2-a][1,6]naphthyridin-8-yl)amino)-5-morpholinophenyl)acrylamide], the IC50 on FGFR1, against FGFR4 and with HUH7 cells was less than 50 nM each time.
Turning to `C=CC(=O)Nc1ccccc1Nc1ncc2cc(-c3c(Cl)c(OC)cc(OC)c3Cl)c3nccn3c2n1` [Synthesis Example 6, N-(2-((6-(2,6-dichloro-3,5-dimethoxyphenyl)imidazo[1′,2′:1,6]pyrido[2,3-d]pyrimidin-2-yl)amino)phenyl)acrylamide], the IC50 with HUH7 cells is less than 50 nM.
Consider `C=CC(=O)Nc1cc(N2CCN(C)CC2)ccc1Nc1ncc2cc(-c3c(Cl)c(OC)cc(OC)c3Cl)c3nccn3c2n1` [compound 52], for which the IC50 against FGFR1, on FGFR4 and in the test on HUH7 cells was less than 50 nM in each case.
For `C=CC(=O)N[C@H]1CCOC[C@H]1Nc1ncc2cc(-c3c(F)c(OC)cc(OC)c3F)c3nccn3c2n1` [compound 5], the IC50 in the test with HUH7 cells was 50 to 500 nM.
Regarding `C=CC(=O)Nc1cc(N2CCNCC2)ccc1Nc1ncc2cc(-c3c(Cl)c(OC)cc(OC)c3Cl)c3nccn3c2n1` [compound 39], the IC50 against FGFR1, at FGFR4 and with HUH7 cells was less than 50 nM throughout.
Regarding `C=CC(=O)Nc1cc(C(C)C)ccc1Nc1ncc2cc(-c3c(Cl)c(OC)cc(OC)c3Cl)c3nccn3c2n1` [compound 22], the IC50 in the test on HUH7 cells was in the range of 50 to 500 nM.
As to `C=CC(=O)Nc1cc(-c2ncc3cc(-c4c(Cl)c(OC)cc(OC)c4Cl)c4nccn4c3n2)cc(N2CCOCC2)c1` [compound 82], the IC50 in the test on HUH7 cells was more than 500 nM.
In the case of `COc1cc(OC)c(Cl)c(-c2cc3cnc(Nc4ccc(N5CCOCC5)cc4NC(=O)/C=C/CN(C)C)nc3n3ccnc23)c1Cl` [compound 34], the IC50 in the test with HUH7 cells fell in the range of 50 to 500 nM.
Turning to `C=CC(=O)Nc1cc(N2CCN(S(C)(=O)=O)CC2)ccc1Nc1ncc2cc(-c3c(Cl)c(OC)cc(OC)c3Cl)c3nccn3c2n1` [compound 35], the IC50 against FGFR1, at FGFR4 and in the test with HUH7 cells was less than 50 nM each time.
Take `C=CC(=O)Nc1cn(C)nc1Nc1cc2c(cn1)cc(-c1c(Cl)c(OC)cc(OC)c1Cl)c1nccn12` [compound 87]: in the test with HUH7 cells, the IC50 is less than 50 nM.
Regarding `C=CC(=O)Nc1cc(OC)ccc1Nc1ncc2cc(-c3c(Cl)c(OC)cc(OC)c3Cl)c3nccn3c2n1` [compound 26], the IC50 in the test with HUH7 cells was less than 50 nM.
Take `C=CC(=O)Nc1cccc(OC)c1Nc1ncc2cc(-c3c(Cl)c(OC)cc(OC)c3Cl)c3nccn3c2n1` [compound 11]: the 50% inhibitory concentration (IC50) against FGFR1 is 50 to 500 nM; against FGFR4 it was less than 50 nM; in the test with HUH7 cells, 50 to 500 nM.
Take `C=CC(=O)Nc1cc(OC2CCN(CC(F)(F)F)CC2)ccc1Nc1ncc2cc(-c3c(Cl)c(OC)cc(OC)c3Cl)c3nccn3c2n1` [compound 55]: in the test on HUH7 cells, the IC50 was 50 to 500 nM.
The same measure, in the same setting: for `C=CC(=O)Nc1cc(OC(C)C)ccc1Nc1ncc2cc(-c3c(Cl)c(OC)cc(OC)c3Cl)c3nccn3c2n1` [compound 28] the value was less than 50 nM; for `C=CC(=O)Nc1cc(N2CC(O)C2)ccc1Nc1ncc2cc(-c3c(Cl)c(OC)cc(OC)c3Cl)c3nccn3c2n1` [compound 45], less than 50 nM; for `C=CC(=O)Nc1cc2c(cc1Nc1ncc3cc(-c4c(Cl)c(OC)cc(OC)c4Cl)c4nccn4c3n1)CCC2` [compound 57], 50 to 500 nM.
For the compound `C=CC(=O)Nc1cc(OC2CCN(C)CC2)c(F)cc1Nc1ncc2cc(-c3c(Cl)c(OC)cc(OC)c3Cl)c3nccn3c2n1` [compound 62], the half-maximal inhibitory concentration (IC50) in the test on HUH7 cells is less than 50 nM.
For the compound `C=CC(=O)Nc1cc(N2CC[C@H](OC)C2)ccc1Nc1ncc2cc(-c3c(Cl)c(OC)cc(OC)c3Cl)c3nccn3c2n1` [compound 44], in the test with HUH7 cells, the IC50 was less than 50 nM.
On the same count and under the same terms, in the case of `C=CC(=O)Nc1cc(N2C[C@@H](C)O[C@@H](C)C2)ccc1Nc1cc2c(cn1)cc(-c1c(Cl)c(OC)cc(OC)c1Cl)c1nccn12` [compound 84] it was less than 50 nM; in that of `C=CC(=O)Nc1ccc(N2CCN(CC)CC2)cc1Nc1ncc2cc(-c3c(Cl)c(OC)cc(OC)c3Cl)c3nccn3c2n1` [compound 13], less than 50 nM.
Same read-out and setting: in the case of `C=CC(=O)Nc1cc(N(C)C)ccc1Nc1ncc2cc(-c3c(Cl)c(OC)cc(OC)c3Cl)c3nccn3c2n1` [compound 24] it was less than 50 nM; in that of `C=CC(=O)Nc1cc(N2CCOCC2)cnc1Nc1ncc2cc(-c3c(Cl)c(OC)cc(OC)c3Cl)c3nccn3c2n1` [compound 70], 50 to 500 nM.
Same read-out and setting: for `C=CC(=O)Nc1cc(OCCN(C)C)ccc1Nc1ncc2cc(-c3c(Cl)c(OC)cc(OC)c3Cl)c3nccn3c2n1` [compound 30] the value was less than 50 nM; for `C=CC(=O)Nc1cc(N2CCC(OC)C2)ccc1Nc1ncc2cc(-c3c(Cl)c(OC)cc(OC)c3Cl)c3nccn3c2n1` (stereo not drawn) [compound 41], less than 50 nM.
Consider `C=CC(=O)Nc1cc(O[C@@H]2CCOC2)c(C)cc1Nc1ncc2cc(-c3c(Cl)c(OC)cc(OC)c3Cl)c3nccn3c2n1` [compound 60], for which, in the test with HUH7 cells, the IC50 lay within 50 to 500 nM.
The same measure, in the same setting: in the case of `C=CC(=O)N[C@H]1CCOC[C@H]1Nc1ncc2cc(-c3c(Cl)c(OC)cc(OC)c3Cl)c3nccn3c2n1` [Synthesis Example 4, N-((3S,4S)-3-((6-(2,6-dichloro-3,5-dimethoxyphenyl)imidazo[1′,2′:1,6]pyrido[2,3-d]pyrimidin-2-yl)amino)tetrahydro-2H-pyran-4-yl)acrylamide] it was 50 to 500 nM.
